Molecular target: T1, soybean lipoxygenase (Glycine max, UniProt P08170)
T1 construct: gene LOX1.1
T1 sequence (P08170 1-839): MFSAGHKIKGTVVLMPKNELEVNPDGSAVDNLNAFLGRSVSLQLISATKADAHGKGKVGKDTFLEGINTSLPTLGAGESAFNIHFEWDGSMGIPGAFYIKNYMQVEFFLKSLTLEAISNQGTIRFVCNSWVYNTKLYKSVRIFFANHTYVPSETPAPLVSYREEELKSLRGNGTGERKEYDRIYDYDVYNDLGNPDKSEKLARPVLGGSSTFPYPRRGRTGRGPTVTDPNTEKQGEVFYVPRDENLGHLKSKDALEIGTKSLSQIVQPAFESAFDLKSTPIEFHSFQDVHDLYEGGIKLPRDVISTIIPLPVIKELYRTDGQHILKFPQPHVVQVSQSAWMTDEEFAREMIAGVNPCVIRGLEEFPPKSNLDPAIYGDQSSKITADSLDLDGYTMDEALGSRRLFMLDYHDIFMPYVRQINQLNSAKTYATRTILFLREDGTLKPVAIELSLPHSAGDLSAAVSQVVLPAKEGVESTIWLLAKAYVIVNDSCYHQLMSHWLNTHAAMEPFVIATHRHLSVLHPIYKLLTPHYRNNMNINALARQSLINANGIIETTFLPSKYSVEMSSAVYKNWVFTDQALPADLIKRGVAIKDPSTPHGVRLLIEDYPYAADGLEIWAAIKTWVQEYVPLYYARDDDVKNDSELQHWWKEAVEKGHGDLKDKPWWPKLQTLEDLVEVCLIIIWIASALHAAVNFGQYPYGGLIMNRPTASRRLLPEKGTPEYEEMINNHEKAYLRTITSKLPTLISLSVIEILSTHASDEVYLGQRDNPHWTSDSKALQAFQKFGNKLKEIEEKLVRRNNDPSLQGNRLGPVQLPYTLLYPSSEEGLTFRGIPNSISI
Experiment: UV assay of sodium linoleate conversion to 13-hydroperoxylinoleic acid at […] nm
Assay type: biochemical
Settings: read-out: LOX Inhibition (% or IC50 [μM]) (±SEM)

SMILES	IC50
[O-]/[N+](=C\c1cc(/C=[N+](\[O-])Cc2ccccc2)cc(/C=[N+](\[O-])Cc2ccccc2)c1)Cc1ccccc1 [HTN3, (1. Z,1′Z,1″Z)-1,1′,1″-(Benzene-1,3,5-triyl)tris(N-benzylmethanimineoxide)]	70 ± 2.6 µM
C/[N+]([O-])=C/c1cc(/C=[N+](/C)[O-])cc(/C=[N+](/C)[O-])c1 [HTN1, (1. Z,1′Z,1″Z)-1,1′,1″-(Benzene-1,3,5-triyl)tris(N-methylmethanimineoxide)]	100 ± 1.1 µM

Reference: PMC7663103, “Homo-Tris-Nitrones Derived from α-Phenyl-N-tert-butylnitrone: Synthesis, Neuroprotection and Antioxidant Properties” (International Journal of Molecular Sciences, 2020)
